ChEMBL document CHEMBL4651402, “Screening of ~5500 FDA-approved drugs and clinical candidates for anti-SARS-CoV-2 activity” (2021)
Peptide text beside a SMILES is read from it.

Tested on: SARS-CoV-2
Assay: microbe, parasite or virus in culture
Settings: Severe acute respiratory syndrome coronavirus 2, Vero C1008, 48 h

SMILES	IC50	IC50 (read-out: pIC50 (converted))
O=C(c1ccc(F)cc1)C1CCN(CCn2c(=O)[nH]c3ccccc3c2=O)CC1 [KETANSERIN]	> 20 µM	> 20 µM
CN(C)CCCn1c(=O)n(-c2ccccc2)c2cc(Cl)ccc21 [CLODAZON]	> 20 µM	> 20 µM
NC(=O)N1CCC(CC(=O)N2CCC([C@H]3c4ncc(Br)cc4CCc4cc(Cl)cc(Br)c43)CC2)CC1 [LONAFARNIB]	> 20 µM	> 20 µM
C[N+]12CCC(CC1)C(OC(=O)C(O)(c1ccccc1)c1ccccc1)C2 (configuration not stated)	> 20 µM	> 20 µM
OC1(c2ccc(Cl)cc2)c2ccccc2C2=NCCN21 (configuration not stated) [MAZINDOL]	> 20 µM	> 20 µM
CCCc1c(OCCCCCOc2cc3c(cc2C(C)=O)CCC(C(=O)O)O3)ccc(C(C)=O)c1O (configuration not stated) [ABLUKAST]	> 20 µM	> 20 µM
CCCc1c(OCCCCc2nnn[nH]2)ccc(C(C)=O)c1O [TOMELUKAST]	> 20 µM	> 20 µM
Nc1ccc(O)c(C(=O)O)c1 [MESALAMINE]	> 20 µM	> 20 µM
O=C(CN1C(=O)c2ccccc2S1(=O)=O)Nc1ccc(O)cc1	> 20 µM	> 20 µM
CCN(CC)CCOCCOC(=O)C(CC)(CC)c1ccccc1 [OXELADIN]	> 20 µM	> 20 µM
O=C(O)CCNC(=O)c1ccccc1 [BETAMIPRON]	> 20 µM	> 20 µM
CC(=O)N1C[C@H](O)C[C@H]1C(=O)O [OXACEPROL]	> 20 µM	> 20 µM
CCOC(=O)COc1ccc2c(=O)cc(-c3ccccc3)oc2c1 [EFLOXATE]	> 20 µM	> 20 µM
CC(C)(C)c1ccc(CSc2cnn(C(C)(C)C)c(=O)c2Cl)cc1 [PYRIDABEN]	> 20 µM	> 20 µM
COc1cc(C(=O)OC2CC3CCC(C2)N3C)ccc1O (configuration not stated) [FILLALBIN]	> 20 µM	> 20 µM
N#Cc1ccccc1-c1cc(-c2ccccn2)cn(-c2ccccc2)c1=O	> 20 µM	> 20 µM
CC(c1cc2ccccc2s1)N(O)C(N)=O (configuration not stated) [ZILEUTON]	> 20 µM	> 20 µM
NCC(=O)c1ccccc1	> 20 µM	> 20 µM
CN1C(CC(O)c2ccccc2)CCCC1CC(O)c1ccccc1 (configuration not stated)	> 20 µM	> 20 µM
CCCCCC(C)(O)/C=C/C1CCC(=O)C1CCCCCCC(=O)O (configuration not stated)	> 20 µM	> 20 µM
CC(=O)OCC(=O)[C@@]1(O)CC[C@H]2[C@@H]3CCC4=CC(=O)CC[C@]4(C)[C@H]3[C@@H](O)C[C@@]21C [HYDROCORTISONE ACETATE]	> 20 µM	> 20 µM
CCn1c(=O)c2ccccc2n(-c2cccc([N+](=O)[O-])c2)c1=O [NITRAQUAZONE]	> 20 µM	> 20 µM
NC1=NC(=O)N(C2CC(O)C(CO)O2)CN1 (configuration not stated)	> 20 µM	> 20 µM
COc1cccc(CCc2ccccc2OCC(CN(C)C)OC(=O)CCC(=O)O)c1 (configuration not stated) [SARPOGRELATE]	> 20 µM	> 20 µM
C[N+]1(CC2CC2)CC[C@]23c4c5ccc(O)c4O[C@H]2C(=O)CC[C@@]3(O)[C@H]1C5 (some centres not stated) [METHYLNALTREXONE]	> 20 µM	> 20 µM
CC12CCC(=O)C=C1CCC1C3CCC(O)(C(=O)CO)C3(C)CC(O)C12F (configuration not stated)	> 20 µM	> 20 µM

SMILES	IC50	IC50 (read-out: pIC50 (converted))
CCc1c(O)cc(O)c(C(=O)c2ccc(OCCN3CCOCC3)c(OC)c2)c1CC(=O)N(CCOC)CCOC [KW-2478 FREE BASE]	> 20 µM	> 20 µM
O=C(c1ccc(OCCN2CCCCC2)cc1)c1c(-c2ccc(O)cc2)sc2cc(O)ccc12 [RALOXIFENE]	> 20 µM	> 20 µM
CC(=O)N[C@@H](CC(=O)O)C(=O)N[C@@H](CCC(=O)O)C(=O)O [ISOSPAGLUMIC ACID] (Ac-Asp-Glu-OH)	> 20 µM	> 20 µM
CC[N+](C)(C)Cc1ccccc1Br [BRETYLIUM]	> 20 µM	> 20 µM
C=C(C)C1Cc2c(ccc3c2OC2COc4cc(OC)c(OC)cc4C2C3=O)O1 (configuration not stated)	> 20 µM	> 20 µM
O=C(NNCS(=O)(=O)O)c1ccncc1 [METHANIAZIDE]	> 20 µM	> 20 µM
CCOc1cc(CC(=O)N[C@@H](CC(C)C)c2ccccc2N2CCCCC2)ccc1C(=O)O [REPAGLINIDE]	> 20 µM	> 20 µM
CS(=O)(=O)c1ccc(-c2cnc(N)c(-c3ccc(C(F)(F)F)nc3)c2)cc1 [MMV-048]	> 20 µM	> 20 µM
Nc1ccccc1NC(=O)c1ccc(CNC(=O)OCc2cccnc2)cc1 [ENTINOSTAT]	> 20 µM	> 20 µM
COC(=O)C1=C(C)NC(C)=C(C(=O)OC(C)(C)CN(C)CCC(c2ccccc2)c2ccccc2)C1c1cccc([N+](=O)[O-])c1 (configuration not stated) [LERCANIDIPINE]	> 20 µM	> 20 µM
ClCCN(Cc1ccccc1)Cc1ccccc1	> 20 µM	> 20 µM
CCN(CC)CCNC(=O)c1c(C)[nH]c(/C=C2\C(=O)Nc3ccc(F)cc32)c1C [SUNITINIB]	> 20 µM	> 20 µM
CCOC(=O)c1ccc(OCCC2CCN(c3ccc(C)nn3)CC2)cc1	> 20 µM	> 20 µM
C=CCNS(=O)(=O)c1cc(S(N)(=O)=O)c(Cl)cc1/N=C/C=C(\C)O	> 20 µM	> 20 µM
CN1CCOC(c2ccccc2)c2ccccc2C1 (configuration not stated) [NEFOPAM]	> 20 µM	> 20 µM
O=C(Nc1ccc(Cl)c(S(=O)(=O)N2CCNCC2)c1O)Nc1cccc(F)c1Cl [ELUBRIXIN]	> 20 µM	> 20 µM
Cn1cc(Nc2nccc(N3CC4CCC(C3)N4C(=O)[C@@H]3CC3(F)F)n2)cn1	> 20 µM	> 20 µM
CCCS(=O)(=O)Nc1ccc(F)c(C(=O)c2c[nH]c3ncc(-c4ccc(Cl)cc4)cc23)c1F [VEMURAFENIB]	> 20 µM	> 20 µM
CC(C)NC[C@H](O)COc1ccc(CC(N)=O)cc1 [ESATENOLOL]	> 20 µM	> 20 µM
C[C@]1(O)C[C@@H](c2nc(-c3ccc4ccc(-c5ccccc5)nc4c3)c3c(N)nccn32)C1 [LINSITINIB]	> 20 µM	> 20 µM
CCCC(CCC)C(N)=O [VALPROMIDE]	> 20 µM	> 20 µM
CC(N)CCCC(C)(C)O (configuration not stated) [HEPTAMINOL]	> 20 µM	> 20 µM
c1ccc(C(Cc2noc(CCN3CCCCC3)n2)c2ccccc2)cc1 [PRENOXDIAZINE]	> 20 µM	> 20 µM
CN1CCc2cc3c(c4c2[C@@H]1Cc1ccccc1-4)OCO3	> 20 µM	> 20 µM
Cc1ncc(-c2csc(N=C(N)N)n2)[nH]1 [ZALTIDINE]	> 20 µM	> 20 µM
CC(C)C(N)=O [ISOBUTYRAMIDE]	> 20 µM	> 20 µM

SMILES	IC50	IC50 (read-out: pIC50 (converted))
COCCOC(=O)C1=C(C)NC(C)=C(C(=O)OCC=Cc2ccccc2)C1c1cccc([N+](=O)[O-])c1 (configuration not stated)	> 20 µM	> 20 µM
CNCC(O)c1ccc(OC(=O)C(C)(C)C)c(OC(=O)C(C)(C)C)c1 (configuration not stated) [DIPIVEFRIN]	> 20 µM	> 20 µM
C[N+](C)(C)CCCCC[N+](C)(C)C [PENTAMETHONIUM]	> 20 µM	> 20 µM
NC(=O)CNC1Cc2ccccc2C1	> 20 µM	> 20 µM
CN1CC(=O)N2[C@@H](c3ccc4c(c3)OCO4)c3[nH]c4ccccc4c3C[C@@H]2C1=O	> 20 µM	> 20 µM
O=C1CCC(N2C(=O)c3ccccc3C2=O)C(=O)N1 (configuration not stated) [THALIDOMIDE]	> 20 µM	> 20 µM
NS(=O)(=O)c1cc2c(cc1C(F)(F)F)NCNS2(=O)=O [HYDROFLUMETHIAZIDE]	> 20 µM	> 20 µM
CCCN(CC)C(CC)C(=O)Nc1c(C)cccc1C (configuration not stated) [ETIDOCAINE]	> 20 µM	> 20 µM
CO[C@H]1C[C@@H]2CC[C@@H](C)[C@@](O)(O2)C(=O)C(=O)N2CCCC[C@H]2C(=O)O[C@H]([C@H](C)C[C@@H]2CC[C@H](n3cnnn3)[C@H](OC)C2)CC(=O)[C@H](C)/C=C(/C)[C@@H](O)[C@@H](OC)C(=O)[C@H](C)C[C@H](C)\C=C/C=C\C=C/1C	> 20 µM	> 20 µM
CNC(=O)[C@H]1O[C@@H](n2cnc3c(NCc4cccc(I)c4)ncnc32)[C@H](O)[C@@H]1O [IB-MECA]	> 20 µM	> 20 µM
CC(C)C(=O)Nc1ccc([N+](=O)O)c(C(F)(F)F)c1	> 20 µM	> 20 µM
Clc1ccc(C(Cn2ccnc2)OCc2c(Cl)cccc2Cl)cc1 (configuration not stated) [ORCONAZOLE]	> 20 µM	> 20 µM
OCC1CCC(n2cnc3c(O)ncnc32)O1 (configuration not stated)	> 20 µM	> 20 µM
CCOc1nc2cccc(C(=O)O)c2n1Cc1ccc(-c2ccccc2-c2noc(=O)[nH]2)cc1 [AZILSARTAN]	> 20 µM	> 20 µM
OC[C@@H](O)[C@H]1O[C@@H]2O[C@H](C(Cl)(Cl)Cl)O[C@@H]2[C@H]1O [CHLORALOSE]	> 20 µM	> 20 µM
CC(=O)OCC(=O)[C@@]1(O)[C@H](C)CC2C3CCC4=CC(=O)C=CC4(C)[C@@]3(F)C(O)CC21C (some centres not stated)	> 20 µM	> 20 µM
CCCCC1(COC(=O)CCC(=O)O)C(=O)N(c2ccccc2)N(c2ccccc2)C1=O [SUXIBUZONE]	> 20 µM	> 20 µM
COc1ccc(CCN(C)CCCC(C#N)(c2ccc(OC)c(OC)c2)C(C)C)cc1OC (configuration not stated)	> 20 µM	> 20 µM
CN(C)CC[C@H](CSc1ccccc1)Nc1ccc(S(=O)(=O)NC(=O)c2ccc(N3CCN(Cc4ccccc4-c4ccc(Cl)cc4)CC3)cc2)cc1[N+](=O)[O-] [ABT 737]	> 20 µM	> 20 µM
CC[N+](C)(CC)CCOC(=O)C(O)(c1ccccc1)C1CCCCC1 (configuration not stated) [OXYPHENONIUM]	> 20 µM	> 20 µM
Cn1cnc([N+](=O)[O-])c1Sc1nc(N)nc2[nH]cnc12 [THIAMIPRINE]	> 20 µM	> 20 µM
NC1CCN(c2cccc(Cl)n2)CC1	> 20 µM	> 20 µM
CC(=O)N[C@@H](CS)C(=O)O [ACETYLCYSTEINE]	> 20 µM	> 20 µM
C[N+]1(C)CCC(OC(=O)C(O)(c2ccccc2)c2ccccc2)CC1 [PARAPENZOLATE]	> 20 µM	> 20 µM
